In PMC8221158, “Novel pyrrolizines bearing 3,4,5-trimethoxyphenyl moiety: design, synthesis, molecular docking, and biological evaluation as potential multi-target cytotoxic agents” (Journal of Enzyme Inhibition and Medicinal Chemistry, 2021):
“And” between values parts separate entries of the source, which are not always exact repeats. Identical values can stand only once.

Assays:
[1] = tested on: MCF-7, HCT116, and A2780 cancer cell lines; test: MTT assay, three cancer cell lines taken together (average, overall range); type: cell-based, human; details: Homo sapiens; MCF-7, HCT116, A2780; read-out: Average of the three IC50 values against the three cancer cell lines
Protocol: Cells from flasks of 70–80% confluency were separately seeded in 96-well flat-bottom microculture plates (Nalgene-Nunc, Thermo Fisher Scientific, Roskilde, Denmark) at a density of 3 × 10^3 cells (MCF-7, A2780, and MRC-5), 1 × 10^4 cells (HCT116), to a volume of 180 μL/well of culture medium. […] The final concentrations of each compound in wells were: 0–50 μM in 200 μL of media (DMSO 0.1%). Lapatinib (Cayman, Ann Arbor, MI) was used as a positive control at the same final concentrations. Medium only (20 μL) was added to each control well, and each concentration was tested in triplicates (n = 3). Following incubation for 72 h, 50 μL MTT was added into each well. Plates were incubated for 3 h, the supernatant was aspirated, and 100 μL of DMSO was added to each well. The optical density (OD) of the purple formazan is proportional to the number of viable cells. […] The absorbance of the reduced MTT was determined using a microplate reader A570 nm.
The MTT assay depends on the reduction of the yellow tetrazole dye (MTT) to the purple formazan by the active mitochondrial dehydrogenase enzymes indicating the viability of the cells which can be measured as OD.

MCF-7/ADR cells = test: MTT assay, doxorubicin-resistant cells; type: cell-based; details: Homo sapiens, NCI/ADR-RES, 72 h treatment, n = 3, read-out: IC50 (µM ± SD) MCF-7/ADR
Protocol: MCF-7 (human breast adenocarcinoma), A2780 (human ovarian cancer) and HCT116 (human colorectal carcinoma), and MRC-5 (normal foetal lung fibroblast) cell lines were bought from the ATCC and were cultured in flasks which were incubated at 37 °C in an atmosphere of 5% CO2, 95% air, and 100% relative humidity, to maintain continuous logarithmic growth. MCF-7, A2780, and HCT116 were maintained in RPMI-1640 media (100 U/mL penicillin, 100 µg/mL streptomycin, and 10% foetal bovine serum, Gibco, Carlsbad, CA). MRC-5 cells were maintained in EMEM (100 U/mL penicillin, 100 µg/mL streptomycin, and 10% foetal bovine serum, Gibco, Carlsbad, CA). Doxorubicin (5 μg/mL, for three months) added for RPMI-1640 media containing MCF7 cells was used to develop doxorubicin-resistant MCF7/ADR cells. All cancer and normal cell lines were cultured according to our previous report. Cells were used within 10–20 passages and were checked for mycoplasma every 6 months, by measuring the bioluminescence (Myco Alert sample detection kit; Lonza, Basel, Switzerland) using the multiplate reader (Synergy HT, BioTek, Winooski, VT).
The MTT assay was used to measure the cytotoxicity and growth inhibitory activities and cytotoxicity of the new compounds according to our previous report[13]^,[17]. Cells from flasks of 70–80% confluency were separately seeded in 96-well flat-bottom microculture plates (Nalgene-Nunc, Thermo Fisher Scientific, Roskilde, Denmark) at a density of 3 × 10^3 cells (MCF-7, A2780, and MRC-5), 1 × 10^4 cells (HCT116), to a volume of 180 μL/well of culture medium. A Neubauer haemocytometer was used for cell counting. Cells were incubated at 37 °C overnight to allow attachment to the wells. The final concentrations of each compound in wells were: 0–50 μM in 200 μL of media (DMSO 0.1%). Lapatinib (Cayman, Ann Arbor, MI) was used as a positive control at the same final concentrations. […] Cytotoxicity of the new compounds was calculated after treatment of cancer/normal cell lines for 72 h. The absorbance of the reduced MTT was determined using a microplate reader A570 nm. […]

MCF-7 cells = test: Cell cycle analysis (flow cytometry); type: cell-based, human; details: 0.1 μM, 24 h
Protocol: Cell cycle perturbations of MCF-7 cells treated with compounds 16a,b,d at 0.1 µM concentration for 24 h was determined using FC500 flow cytometer (FC500, Beckman Coulter, Miami, FL). The cell cycle analysis was performed according to our previous report.
Based on the results of the MTT assay (Table 1), compounds 16a,b,d were selected to investigate their effect on cell cycle phases of MCF-7 cells. The cancer cells were treated with the test compounds at 0.1 μM and vehicle (control) for 24 h according to the previous report. Cell cycle analysis was performed using FC500 flow cytometer (FC500, Beckman Coulter, Miami, FL). […] On the other hand, the S phase was the least affected with less than a twofold decrease.

porcine tubulin = target: T1, porcine tubulin (Sus scrofa, UniProt P02550+P02554); test: Tubulin polymerisation fluorescence-based assay; type: biochemical; details: 5 μM, 37 °C, 60 min; qualitative
T1 construct: purchased Cytoskeleton Inc., Denver, CO BK011P
Protocol: The effect of compounds 16a,b,d on tubulin polymerisation was measured in vitro using tubulin polymerisation fluorescence-based assay (cytoskeleton, cat. BK011P, https://www.cytoskeleton.com/bk011p). The assay was performed following the previous report[22] and according to the manufacturer’s instructions. Briefly, 2 mg/mL porcine tubulin was dissolved in buffer 1 (80 mM PIPES, 2 mM MgCl2, 0.5 mM EGTA pH 6.9, 10 µM fluorescent reporter, 1 mM GTP, 15% glycerol) to a final concentration of […]. Then tubulin solution was transferred to a pre-warmed 96-well plate that contained the test compounds 16a,b,d (5 μM), paclitaxel (3 μM), CaCl2 (0.5 μM), and control buffer. The polymerisation of tubulin was monitored as fluorescence at 37 °C for 60 min. Relative fluorescence units (RFU) were determined at 360 nm for excitation and at 460 nm for emission using the Varioskan Flash spectral scanning multimode reader (Thermo Fisher Scientific, Roskilde, Denmark) at a reading speed of 1 cycle/min.
In the current study, the new compounds were designed bearing the trimethoxy phenyl moiety aiming to obtain new cytotoxic agents that can interfere with tubulin polymerisation in cancer cells. […] In this assay, light scattering by microtubules which is directly proportional to the concentration of the microtubule polymer was used as a measure of tubulin polymerisation. The study was performed using a fluorescence-based tubulin polymerisation assay kit (Cytoskeleton Inc., Denver, CO; Cat # BK011P) following the manufacturer’s instructions (https://www.cytoskeleton.com/bk011p) and according to the previous report.
Paclitaxel (3 μM) was used as a tubulin polymerisation enhancer (positive control, enhancer), while calcium chloride (CaCl2, 0.5 μM) was used as a positive control (inhibitor) as per the manufacturer’s instructions (https://www.cytoskeleton.com/pdf-storage/datasheets/bk011p.pdf). The vehicle was also used to evaluate the polymerisation when tubulin is incubated in the absence of the test compound. The effect of the selected compounds (5 μM) on tubulin polymerisation was evaluated and compared with those of the positive control. The results are represented in Figure 8.

T1 sequence (P02550 whole entry): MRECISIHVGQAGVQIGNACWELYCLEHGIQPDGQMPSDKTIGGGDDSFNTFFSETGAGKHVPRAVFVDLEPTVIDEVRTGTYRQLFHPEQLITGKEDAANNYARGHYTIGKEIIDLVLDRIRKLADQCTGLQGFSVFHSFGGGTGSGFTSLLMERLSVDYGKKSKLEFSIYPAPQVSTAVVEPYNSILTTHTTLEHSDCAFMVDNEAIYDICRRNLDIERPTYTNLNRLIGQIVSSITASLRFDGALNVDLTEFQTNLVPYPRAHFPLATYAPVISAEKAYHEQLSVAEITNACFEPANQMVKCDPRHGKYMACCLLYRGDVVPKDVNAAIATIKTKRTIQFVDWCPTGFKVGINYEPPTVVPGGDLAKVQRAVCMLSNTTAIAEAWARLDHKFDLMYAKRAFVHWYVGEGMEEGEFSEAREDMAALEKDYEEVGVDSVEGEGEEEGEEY
T1 sequence (P02554 whole entry): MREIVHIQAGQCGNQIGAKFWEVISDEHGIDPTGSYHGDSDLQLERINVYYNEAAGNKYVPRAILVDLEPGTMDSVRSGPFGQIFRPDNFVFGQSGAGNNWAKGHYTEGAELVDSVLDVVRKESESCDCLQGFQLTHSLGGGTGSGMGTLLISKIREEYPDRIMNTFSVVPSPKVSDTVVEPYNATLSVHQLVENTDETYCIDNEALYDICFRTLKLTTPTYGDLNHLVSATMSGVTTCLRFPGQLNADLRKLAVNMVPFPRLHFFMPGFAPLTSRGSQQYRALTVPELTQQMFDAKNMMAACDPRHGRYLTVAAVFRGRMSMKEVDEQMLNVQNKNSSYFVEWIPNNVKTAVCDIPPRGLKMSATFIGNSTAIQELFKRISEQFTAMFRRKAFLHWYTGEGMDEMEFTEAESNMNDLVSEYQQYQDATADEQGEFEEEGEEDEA

## COc1cc(C(=O)Nc2c(C#N)c3n(c2C(=O)Nc2ccc(C)cc2)CCC3)cc(OC)c1OC [16b, 7-Cyano-N-(p-tolyl)-6-(3,4,5-trimethoxybenzamido)-2,3-dihydro-1H-pyrrolizine-5-carboxamide]
[1]
  IC50: 113 nM
MCF-7/ADR cells
  IC50: 6.26 ± 0.71 µM
MCF-7 cells
  Cell cycle stage % G1: 13.19 ± 2.95%
  Cell cycle stage % G2/M: 35.35 ± 4.19%
  Cell cycle stage % S: 28.46 ± 2.79%
  Cell cycle stage % preG1: 22.43 ± 2.24%
Porcine tubulin
  effect on tubulin polymerisation: moderate inhibitory activity

## COc1cc(C(=O)Nc2c(C#N)c3n(c2C(=O)Nc2ccccc2)CCC3)cc(OC)c1OC [16a, 7-Cyano-N-phenyl-6-(3,4,5-trimethoxybenzamido)-2,3-dihydro-1H-pyrrolizine-5-carboxamide]
[1]
  IC50: 87 nM
MCF-7/ADR cells
  IC50: 1.57 ± 0.04 µM
MCF-7 cells
  Cell cycle stage % G1: 10.69 ± 1.32%
  Cell cycle stage % G2/M: 37.38 ± 4.66%
  Cell cycle stage % S: 25.93 ± 3.47%
  Cell cycle stage % preG1: 26.92 ± 3.07%
Porcine tubulin
  effect on tubulin polymerisation: weak

## COc1cc(C(=O)Nc2c(C#N)c3n(c2C(=O)Nc2ccc(Cl)cc2)CCC3)cc(OC)c1OC [16d, N-(4-Chlorophenyl)-7-cyano-6-(3,4,5-trimethoxybenzamido) -2,3-dihydro-1H-pyrrolizine-5-carboxamide]
[1]
  IC50: 66 nM
MCF-7/ADR cells
  IC50: 0.52 ± 0.066 µM
MCF-7 cells
  Cell cycle stage % G1: 5.46 ± 0.87%
  Cell cycle stage % G2/M: 45.62% and 45.62 ± 5.25%
  Cell cycle stage % S: 24.92 ± 2.22%
  Cell cycle stage % preG1: 27.56% and 27.56 ± 3.93%
Porcine tubulin
  effect on tubulin polymerisation: moderate inhibitory activity
